The structures appear in SMILES notation. Bounds are passed on as bounds.

For test [1], the target named is T1, AXL (Homo sapiens, UniProt P30530).
T1 sequence (P30530 26-894): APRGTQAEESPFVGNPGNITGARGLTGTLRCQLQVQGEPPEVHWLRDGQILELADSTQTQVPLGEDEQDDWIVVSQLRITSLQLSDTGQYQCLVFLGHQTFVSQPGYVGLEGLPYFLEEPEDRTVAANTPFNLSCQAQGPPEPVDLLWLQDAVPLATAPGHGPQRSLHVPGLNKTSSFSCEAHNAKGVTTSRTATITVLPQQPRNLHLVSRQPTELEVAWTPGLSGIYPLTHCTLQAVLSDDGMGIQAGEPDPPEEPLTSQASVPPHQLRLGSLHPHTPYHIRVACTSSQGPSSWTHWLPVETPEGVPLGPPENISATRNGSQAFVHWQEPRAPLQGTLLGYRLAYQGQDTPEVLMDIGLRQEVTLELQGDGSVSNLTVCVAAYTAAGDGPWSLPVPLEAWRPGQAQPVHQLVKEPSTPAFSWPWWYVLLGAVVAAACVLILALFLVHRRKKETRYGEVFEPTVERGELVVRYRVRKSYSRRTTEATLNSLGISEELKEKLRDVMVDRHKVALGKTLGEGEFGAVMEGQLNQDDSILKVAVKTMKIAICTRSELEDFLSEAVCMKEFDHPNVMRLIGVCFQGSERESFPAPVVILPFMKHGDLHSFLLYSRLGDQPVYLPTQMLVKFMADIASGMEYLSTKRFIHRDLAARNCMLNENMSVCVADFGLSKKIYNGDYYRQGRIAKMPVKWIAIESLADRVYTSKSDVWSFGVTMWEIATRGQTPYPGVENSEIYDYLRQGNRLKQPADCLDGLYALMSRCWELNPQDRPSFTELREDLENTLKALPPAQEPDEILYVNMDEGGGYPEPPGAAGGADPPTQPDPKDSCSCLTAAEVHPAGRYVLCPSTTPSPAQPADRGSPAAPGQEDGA
The test is described as follows: TR-FRET kinase activity assay, AXL. It is filed as biochemical. The following applies: ATP at Km, 60 minutes. In short, it runs like this: (§1)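 Enzyme + labelled peptide + cpd premixed; ATP at per-enzyme Km starts rxn. 60 min RT, HEPES pH 7.5/MgCl2/EGTA/Brij 35/DTT buffer. Stop 12.5 mM EDTA, Eu phospho-Ab 30 min dark, TR-FRET read → IC50.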
In general terms: TR-FRET usually uses a lanthanide donor and a delayed reading to cut background.

Test [2] addresses T2, TYRO3 (Homo sapiens, UniProt Q06418).
T2 sequence (Q06418 41-890): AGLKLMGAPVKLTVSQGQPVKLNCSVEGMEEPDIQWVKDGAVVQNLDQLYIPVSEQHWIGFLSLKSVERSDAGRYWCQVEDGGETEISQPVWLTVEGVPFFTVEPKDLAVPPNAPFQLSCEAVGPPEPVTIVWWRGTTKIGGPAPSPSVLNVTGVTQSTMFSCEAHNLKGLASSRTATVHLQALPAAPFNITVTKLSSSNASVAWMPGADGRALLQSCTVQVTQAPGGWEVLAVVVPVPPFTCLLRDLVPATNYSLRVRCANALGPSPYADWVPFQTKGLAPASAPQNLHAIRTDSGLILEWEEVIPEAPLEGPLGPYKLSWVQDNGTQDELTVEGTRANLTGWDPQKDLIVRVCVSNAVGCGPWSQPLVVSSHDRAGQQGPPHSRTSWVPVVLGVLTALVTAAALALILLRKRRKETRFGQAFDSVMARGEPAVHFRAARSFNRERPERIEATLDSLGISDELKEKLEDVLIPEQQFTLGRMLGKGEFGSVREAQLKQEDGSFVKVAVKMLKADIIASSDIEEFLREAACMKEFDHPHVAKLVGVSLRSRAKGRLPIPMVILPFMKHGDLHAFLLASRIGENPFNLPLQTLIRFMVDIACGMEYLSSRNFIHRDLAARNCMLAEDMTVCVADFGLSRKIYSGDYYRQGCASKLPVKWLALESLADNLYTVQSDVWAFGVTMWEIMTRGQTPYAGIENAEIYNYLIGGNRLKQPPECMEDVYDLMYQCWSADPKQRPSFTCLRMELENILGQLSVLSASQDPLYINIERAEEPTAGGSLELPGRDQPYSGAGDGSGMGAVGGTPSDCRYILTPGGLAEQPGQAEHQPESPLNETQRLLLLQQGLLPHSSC
The test is described as follows: TR-FRET kinase activity assay, TYRO3. Type of test: biochemical. Conditions: ATP at Km, 60 minutes. In short, it runs like this:
as §1

As to `COC[C@H](C)Nc1ncc2c(-c3cnn(C4COC4)c3)cc([C@H]3CCc4[nH]ncc4C3)n2n1` [Compound 624], the concentration for half-maximal inhibition (IC50) in test [1] and in test [2] was ≤ 100 nM each time.

Turning to `COC[C@H](C)Nc1ncc2c(-c3cnn(CC(=O)O)c3)cc([C@H]3CC[C@H](O)CC3)n2n1` [Compound 160], the IC50 in test [1] and in test [2] was ≤ 100 nM each time.

As to `COC[C@H](C)Nc1ncc2c(-c3cnn(CC(=O)N4CCOCC4)c3)cc([C@H]3CC[C@H](O)CC3)n2n1` [Compound 162], the IC50 in test [1] and in test [2] was ≤ 100 nM throughout.

With `COC[C@H](C)Nc1ncc2c(-c3ccnc(N4CCC(C)(O)CC4)c3)cc([C@H]3CC[C@H](O)CC3)n2n1` [Compound 605], the IC50 in test [1] and in test [2] was ≤ 100 nM in each case.

As to `COC[C@H](C)Nc1ncc2c(-c3cnn(C(C)(C)c4nnc([C@H]5CCCO5)o4)c3)cc([C@H]3CC[C@H](O)CC3)n2n1` [Compound 602], the IC50 in test [1] and in test [2] was ≤ 100 nM each time.

Consider `COCC(C)Nc1ncc2c(-c3ccc(C(C)N4CCCC4)cc3)cc(C3CCC(O)CC3)n2n1` (centres unmarked) [Compound 166], for which the IC50 in test [1] and in test [2] was ≤ 100 nM each time.

`COC[C@H](C)Nc1ncc2c(-c3cnn(C(C)(C)C(=O)N4CCCC4)c3)cc([C@H]3CC[C@H](O)CC3)n2n1` [Compound 612]: the IC50 in test [1] and in test [2] was ≤ 100 nM throughout.

Consider `COC[C@H](C)Nc1ncc2c(-c3cnn(C(C)(C)c4nnc(C(C)C)o4)c3)cc([C@H]3CC[C@H](O)CC3)n2n1` [Compound 600], for which the IC50 in test [1] and in test [2] was ≤ 100 nM in each case.

In the case of `COC[C@H](C)Nc1ncc2c(-c3cnn(C4COC4)c3)cc([C@H]3CC[C@H](O)C(F)(F)C3)n2n1` [Compound 614], the half-maximal inhibitory concentration (IC50) in test [1] and in test [2] was ≤ 100 nM in each case.

Take `[2H]C([2H])([2H])OCC(C)Nc1ncc2c(-c3cnn(C4COC4)c3)cc(C3CCC(O)CC3)n2n1` (centres unmarked) [Compound 630]: the half-maximal inhibitory concentration (IC50) in test [1] and in test [2] was ≤ 100 nM in each case.

As to `CC(Nc1ncc2c(-c3ccc(CN4CCN(C)CC4)cc3)cc([C@H]3CC[C@H](O)CC3)n2n1)C(F)F` (mixture of isomers) [Compound 148], the IC50 in test [1] and in test [2] was ≤ 100 nM each time.

Take `COC[C@H](C)Nc1ncc2c(-c3ccc([C@H](C)N4CCCC4)cc3)cc([C@H]3CC[C@H](O)CC3)n2n1` [Compound 165]: the half-inhibitory concentration (IC50) in test [1] and in test [2] was ≤ 100 nM throughout.

With `COC[C@H](C)Nc1ncc2c(C3=CC4CCC(C3)N4)cc([C@H]3CC[C@H](O)CC3)n2n1` (some centres unmarked) [Compound 170], the IC50 in test [1] and in test [2] was ≤ 100 nM throughout.

In the case of `COCC1(Nc2ncc3c(-c4ccc(CN5CCN(C)CC5)cc4)cc(C4CCC(O)CC4)n3n2)CC1` (centres unmarked) [Compound 149], the IC50 (in general, the point on the concentration scale where inhibition reaches its midpoint) in test [1] is 100 to 1000 nM; in test [2] it was ≤ 100 nM.

In the case of `COC[C@H](C)Nc1ncc2c(-c3cnn(C(C)(C)C(=O)N4CCC(C)(O)C4)c3)cc([C@H]3CC[C@H](O)CC3)n2n1` (some centres unmarked) [Compound 620], the IC50 in test [1] and in test [2] was ≤ 100 nM throughout.

In the case of `C[C@@H](CC(F)(F)F)Nc1ncc2c(-c3cnn(C(C)(C)C(=O)N4CCN(C)CC4)c3)cc(C3CCC(O)CC3)n2n1` (some centres unmarked) [Compound 626], the IC50 in test [1] and in test [2] was ≤ 100 nM throughout.

With `CC[C@]1(O)CC[C@@H](c2cc(-c3cnn(C4COC4)c3)c3cnc(N[C@@H](C)COC)nn32)CC1` [Compound 616], the IC50 in test [1] and in test [2] was ≤ 100 nM each time.

Regarding `COCC(C)Nc1ncc2c(-c3ccc(C(C)(C)c4nnc(C)o4)s3)cc(C3CCC(O)CC3)n2n1` (centres unmarked) [Compound 611], the IC50 in test [1] and in test [2] was ≤ 100 nM throughout.

As for `COC[C@H](C)Nc1ncc2c(-c3ccc([C@H](C)N4CCOCC4)cc3)cc([C@H]3CC[C@H](O)CC3)n2n1` [Compound 157], the IC50 in test [1] and in test [2] was ≤ 100 nM each time.

With `COC[C@H](C)Nc1ncc2c(-c3cnn(C(C)(C)C(=O)N4CC(C)(O)C4)c3)cc([C@H]3CC[C@H](O)CC3)n2n1` [Compound 622], the IC50 in test [1] and in test [2] was ≤ 100 nM each time.

Turning to `COCCC(C)Nc1ncc2c(-c3ccc(CN4CCCC4)cc3)cc(C3CCC(O)CC3)n2n1` (centres unmarked) [Compound 161], the IC50 was 100 to 1000 nM in test [1] and ≤ 100 nM in test [2].

On to `COC[C@H](C)Nc1ncc2c(-c3ccnc(S(C)(=O)=O)c3)cc(C3CCC(O)CC3)n2n1` (some centres unmarked) [Compound 627], for which the IC50 in test [1] and in test [2] was ≤ 100 nM in each case.

As to `COC[C@H](C)Nc1ncc2c(-c3ccc(CN4CCN(c5nccc(C)n5)CC4)cc3)cc([C@H]3CC[C@H](O)CC3)n2n1` [Compound 154, (trans)-4-(2-(((S)-1-methoxypropan-2-yl)amino)-5-(4-((4-(4-methylpyrimidin-2-yl)piperazin-1-yl)methyl)phenyl)pyrrolo[2,1-f][1,2,4]triazin-7-yl)cyclohexanol], the IC50 in test [1] and in test [2] was ≤ 100 nM each time.

On to `COC[C@H](C)Nc1ncc2c(-c3ccnc(N4CCC(C)(O)C4)c3)cc(C3CCC(O)CC3)n2n1` (some centres unmarked) [Compound 633], for which the IC50 in test [1] and in test [2] was ≤ 100 nM in each case.

In the case of `COC[C@H](C)Nc1ncc2c(-c3cnn(C(C)(C)c4nc(C)co4)c3)cc([C@H]3CC[C@H](O)CC3)n2n1` [Compound 623], the IC50 in test [1] and in test [2] was ≤ 100 nM throughout.

Regarding `COC[C@H](C)Nc1ncc2c([C@H]3CC[C@@H](C(=O)N4CCN(C)CC4)CC3)cc([C@H]3CC[C@H](O)CC3)n2n1` [Compound 607], the IC50 in test [1] and in test [2] was ≤ 100 nM in each case.

As to `COC[C@H](C)Nc1ncc2c(-c3ccc(C4(C(=O)N5CCOCC5)CC4)cc3)cc([C@H]3CC[C@H](O)CC3)n2n1` [Compound 171], the IC50 in test [1] and in test [2] was ≤ 100 nM throughout.

For `C[C@@H](CC(F)(F)F)Nc1ncc2c(-c3cnn(C(C)(C)C(=O)C4COC4)c3)cc([C@H]3CC[C@](C)(O)CC3)n2n1` [Compound 610], the 50% inhibitory concentration (IC50) in test [1] and in test [2] was ≤ 100 nM throughout.
